One compound from EP1611112B1, “ISOXAZOLE COMPOUNDS AS INHIBITORS OF HEAT SHOCK PROTEINS” (Vernalis (Cambridge) Limited, priority 2003, dated 2004) can be followed below.

Each structure is given as a SMILES string.

Assay [1] is described as follows: Sulforhodamine B (SRB) growth inhibition / growth arrest assay. Format: cell-based. The conditions noted are these: cell line not named. On the procedure:
A growth inhibition assay was also employed for the evaluation of candidate HSP90 inhibitors: • Assessment of cytotoxicity by Sulforhodamine B (SRB) assay: calculation of 50% inhibitory concentration (IC50).
• 1) Determine cell number by haemocytometer. • 2) Using an 8 channel multipipettor, add 160µl of the cell suspension (3600 cells/well or 2 x 10^4 cells/ml) to each well of a 96-well microtitre plate. • 3) Incubate overnight at 37°C in a CO2 incubator. […]
• 8) Tip off medium into sink and immerse plate slowly into 10% ice cold trichloroacetic acid (TCA). […] Leave for 15 mins. • 12)Wash off unbound SRB stain with four washes of 1% acetic acid. • 13)Dry plates in incubator. • 14)Solubilise SRB using 100µl of 10mM Tris base and put plates on plate shaker for 5 mins. • 15)Determine absorbance at 540nm using a plate reader. Calculate mean absorbance for quadruplicate wells and express as a percentage of value for control, untreated wells. • 16)Plot % absorbance values versus log drug concentration and determine the IC50. […]

The next assay deals with T1, human full-length HSP90 (Homo sapiens, UniProt P08238).
T1 construct: E. coli expressed human full-length HSP90 protein; made in house; host or cells: E. coli
T1 sequence (P08238 whole entry): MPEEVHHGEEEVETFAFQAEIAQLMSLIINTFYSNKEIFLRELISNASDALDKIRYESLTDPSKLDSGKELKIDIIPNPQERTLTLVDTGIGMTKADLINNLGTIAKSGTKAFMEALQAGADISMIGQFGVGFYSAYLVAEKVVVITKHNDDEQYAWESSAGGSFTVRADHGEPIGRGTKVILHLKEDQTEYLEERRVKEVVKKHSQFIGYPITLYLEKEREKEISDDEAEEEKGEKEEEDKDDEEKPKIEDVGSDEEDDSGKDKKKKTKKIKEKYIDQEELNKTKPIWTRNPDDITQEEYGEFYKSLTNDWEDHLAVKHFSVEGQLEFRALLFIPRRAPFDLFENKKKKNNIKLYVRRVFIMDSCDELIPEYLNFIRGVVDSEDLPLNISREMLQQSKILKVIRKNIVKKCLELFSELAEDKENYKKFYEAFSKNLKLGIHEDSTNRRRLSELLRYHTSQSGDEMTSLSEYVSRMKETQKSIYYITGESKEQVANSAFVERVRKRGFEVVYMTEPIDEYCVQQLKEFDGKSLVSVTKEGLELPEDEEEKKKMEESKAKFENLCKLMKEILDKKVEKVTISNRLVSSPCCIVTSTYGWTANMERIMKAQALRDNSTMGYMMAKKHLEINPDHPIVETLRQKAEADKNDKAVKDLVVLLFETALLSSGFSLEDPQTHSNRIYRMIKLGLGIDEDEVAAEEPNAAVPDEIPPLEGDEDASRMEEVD
Put plainly: Fluorescence Polarisation Assay (displacement of fluorescein-labelled probe RBT0045864-FAM). The following applies: Fluorescence Polarisation Assay, activity range. It is filed as binding. In short, it runs like this: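 Competitive fluorescence polarization: compound displaces fluorescein-labelled probe from HSP90, measured as change in anisotropy after equilibration. Probe working solution 200 nM; compounds serially diluted from a 2.5 mM (50x) stock, with a standard compound as positive control.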

As to `COc1ccc(-c2c(C)noc2-c2cc(Br)c(O)cc2O)cc1` [Example 2, 4-Bromo-6-[4-(4-methoxy-phenyl)-3-methyl-isoxazol-5-yl]-benzene-1,3-diol], the IC50 is less than 50 µM in assay [1] and less than 10 µM on human full-length HSP90.
